Measurements reported in the kinase profiling compilation of Christmann-Franck et al. (2016).

Key:
Assay in all cases: KINOMEscan competition binding
Conditions in all cases: compound 10.0 µM
[1] = biological target: NTRK2 (human) (UniProt Q16620)
[2] = biological target: FGFR2 (human) (UniProt P21802)
[3] = biological target: MAP2K6 (human) (UniProt P52564)
[4] = biological target: STK16 (human) (UniProt O75716)
[5] = biological target: MAPK14 (human) (UniProt Q16539)
[6] = biological target: TESK1 (human) (UniProt Q15569)
[7] = biological target: RPS6KA5 KD1 (human) (UniProt O75582)
[8] = biological target: NIM1 (human) (UniProt Q8IY84)
[9] = biological target: SYK (human) (UniProt P43405)
[10] = biological target: PI4KB (human) (UniProt Q9UBF8)
[11] = biological target: INSR (human) (UniProt P06213)
[12] = biological target: RIOK3 (human) (UniProt O14730)
[13] = biological target: PRKG1 (human) (UniProt Q13976)
[14] = biological target: PAK6 (human) (UniProt Q9NQU5)
[15] = test system: EGFR (human), P00533 [L858R]
[16] = biological target: EPHA8 (human) (UniProt P29322)
[17] = biological target: CDK19 (human) (UniProt Q9BWU1)
[18] = biological target: CDK13 (human) (UniProt Q14004)
[19] = biological target: TEC (human) (UniProt P42680)
[20] = biological target: FES (human) (UniProt P07332)
[21] = biological target: EIF2AK2 (human) (UniProt P19525)
[22] = biological target: SRPK3 (human) (UniProt Q9UPE1)
[23] = biological target: PRPF4B (human) (UniProt Q13523)
[24] = biological target: MAPKAPK5 (human) (UniProt Q8IW41)
[25] = biological target: EPHA1 (human) (UniProt P21709)
[26] = biological target: CDK18 (human) (UniProt Q07002)
[27] = biological target: ADCK3 (human) (UniProt Q8NI60)
[28] = biological target: SGK110 (human) (UniProt P0C264)
[29] = biological target: PLK4 (human) (UniProt O00444)
[30] = biological target: PRKD2 (human) (UniProt Q9BZL6)
[31] = biological target: RIOK2 (human) (UniProt Q9BVS4)
[32] = biological target: MAP2K3 (human) (UniProt P46734)
[33] = biological target: JAK1 JH1 catalytic (human) (UniProt P23458)
[34] = biological target: CDKL3 (human) (UniProt Q8IVW4)
[35] = biological target: CDK4 CCND3 (human) (UniProt P11802+P30281)
[36] = biological target: ULK2 (human) (UniProt Q8IYT8)
[37] = biological target: MARK3 (human) (UniProt P27448)
[38] = test system: MET (human), P08581 [M1250T]
[39] = biological target: CDK9 (human) (UniProt P50750)
[40] = biological target: DCLK1 (human) (UniProt O15075)

Sequence of NTRK2 (human) (Q16620 whole entry, looked up): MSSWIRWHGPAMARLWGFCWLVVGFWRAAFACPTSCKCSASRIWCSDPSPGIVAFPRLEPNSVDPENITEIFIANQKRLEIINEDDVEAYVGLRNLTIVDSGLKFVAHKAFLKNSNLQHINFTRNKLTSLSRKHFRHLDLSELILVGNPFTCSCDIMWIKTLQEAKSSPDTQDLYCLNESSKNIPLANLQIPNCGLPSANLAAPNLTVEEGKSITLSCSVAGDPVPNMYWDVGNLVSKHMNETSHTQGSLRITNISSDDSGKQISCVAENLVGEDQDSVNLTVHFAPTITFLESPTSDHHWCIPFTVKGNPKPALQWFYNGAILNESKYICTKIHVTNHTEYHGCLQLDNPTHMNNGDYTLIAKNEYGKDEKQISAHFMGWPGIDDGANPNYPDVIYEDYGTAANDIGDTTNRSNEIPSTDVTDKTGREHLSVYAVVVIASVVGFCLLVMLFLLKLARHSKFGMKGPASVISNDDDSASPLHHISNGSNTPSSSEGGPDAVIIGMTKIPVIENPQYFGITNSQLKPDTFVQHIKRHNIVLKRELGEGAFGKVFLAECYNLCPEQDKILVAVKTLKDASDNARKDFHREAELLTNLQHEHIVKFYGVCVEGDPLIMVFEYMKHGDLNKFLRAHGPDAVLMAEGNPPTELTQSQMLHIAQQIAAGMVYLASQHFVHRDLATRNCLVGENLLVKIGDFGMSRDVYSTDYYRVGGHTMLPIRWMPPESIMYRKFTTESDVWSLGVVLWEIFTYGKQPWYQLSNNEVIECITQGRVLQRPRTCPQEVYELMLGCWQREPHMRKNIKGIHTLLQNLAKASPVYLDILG
Sequence of FES (human) (P07332 whole entry, looked up): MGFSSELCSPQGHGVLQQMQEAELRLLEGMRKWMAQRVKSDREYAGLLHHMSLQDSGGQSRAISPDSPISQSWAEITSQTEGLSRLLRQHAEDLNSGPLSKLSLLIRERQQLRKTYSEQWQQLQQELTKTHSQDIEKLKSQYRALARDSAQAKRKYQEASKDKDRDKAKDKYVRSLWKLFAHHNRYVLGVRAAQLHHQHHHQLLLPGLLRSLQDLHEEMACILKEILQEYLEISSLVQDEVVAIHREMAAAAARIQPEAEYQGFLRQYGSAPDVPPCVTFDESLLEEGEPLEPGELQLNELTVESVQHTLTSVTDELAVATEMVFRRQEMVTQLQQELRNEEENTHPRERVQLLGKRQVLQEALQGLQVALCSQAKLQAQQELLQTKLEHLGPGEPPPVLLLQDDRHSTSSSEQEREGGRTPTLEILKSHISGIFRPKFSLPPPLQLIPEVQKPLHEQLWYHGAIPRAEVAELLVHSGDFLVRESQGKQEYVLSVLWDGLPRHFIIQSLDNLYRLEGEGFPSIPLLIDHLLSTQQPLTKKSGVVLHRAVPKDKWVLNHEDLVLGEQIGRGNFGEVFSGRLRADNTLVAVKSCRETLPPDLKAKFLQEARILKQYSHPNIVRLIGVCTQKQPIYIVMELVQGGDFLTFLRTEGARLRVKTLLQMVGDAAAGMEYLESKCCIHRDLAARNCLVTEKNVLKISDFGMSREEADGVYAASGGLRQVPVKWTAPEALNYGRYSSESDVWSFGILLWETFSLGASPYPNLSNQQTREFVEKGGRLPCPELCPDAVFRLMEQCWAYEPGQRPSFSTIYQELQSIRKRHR
Sequence of FGFR2 (human) (P21802 whole entry, looked up): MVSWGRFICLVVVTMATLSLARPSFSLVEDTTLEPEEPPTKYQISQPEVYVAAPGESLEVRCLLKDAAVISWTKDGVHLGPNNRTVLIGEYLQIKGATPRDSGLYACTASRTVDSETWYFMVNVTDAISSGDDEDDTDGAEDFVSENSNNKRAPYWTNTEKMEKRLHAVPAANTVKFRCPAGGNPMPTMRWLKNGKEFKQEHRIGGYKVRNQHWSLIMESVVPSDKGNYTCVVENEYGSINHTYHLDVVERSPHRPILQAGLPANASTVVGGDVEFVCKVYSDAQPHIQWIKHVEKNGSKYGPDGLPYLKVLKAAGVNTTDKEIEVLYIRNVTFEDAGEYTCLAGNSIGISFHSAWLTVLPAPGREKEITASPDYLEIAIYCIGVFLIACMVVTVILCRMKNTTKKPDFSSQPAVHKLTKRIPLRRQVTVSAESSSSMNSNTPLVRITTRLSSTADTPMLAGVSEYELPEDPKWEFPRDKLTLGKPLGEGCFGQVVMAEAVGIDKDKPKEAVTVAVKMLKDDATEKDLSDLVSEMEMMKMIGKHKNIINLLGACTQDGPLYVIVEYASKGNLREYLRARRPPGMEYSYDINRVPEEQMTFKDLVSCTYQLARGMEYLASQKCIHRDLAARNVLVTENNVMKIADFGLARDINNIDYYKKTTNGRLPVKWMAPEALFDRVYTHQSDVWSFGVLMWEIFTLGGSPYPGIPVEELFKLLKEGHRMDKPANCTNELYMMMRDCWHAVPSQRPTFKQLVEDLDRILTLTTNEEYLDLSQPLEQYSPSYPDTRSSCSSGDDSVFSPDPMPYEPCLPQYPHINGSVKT
Sequence of PRKD2 (human) (Q9BZL6 whole entry, looked up): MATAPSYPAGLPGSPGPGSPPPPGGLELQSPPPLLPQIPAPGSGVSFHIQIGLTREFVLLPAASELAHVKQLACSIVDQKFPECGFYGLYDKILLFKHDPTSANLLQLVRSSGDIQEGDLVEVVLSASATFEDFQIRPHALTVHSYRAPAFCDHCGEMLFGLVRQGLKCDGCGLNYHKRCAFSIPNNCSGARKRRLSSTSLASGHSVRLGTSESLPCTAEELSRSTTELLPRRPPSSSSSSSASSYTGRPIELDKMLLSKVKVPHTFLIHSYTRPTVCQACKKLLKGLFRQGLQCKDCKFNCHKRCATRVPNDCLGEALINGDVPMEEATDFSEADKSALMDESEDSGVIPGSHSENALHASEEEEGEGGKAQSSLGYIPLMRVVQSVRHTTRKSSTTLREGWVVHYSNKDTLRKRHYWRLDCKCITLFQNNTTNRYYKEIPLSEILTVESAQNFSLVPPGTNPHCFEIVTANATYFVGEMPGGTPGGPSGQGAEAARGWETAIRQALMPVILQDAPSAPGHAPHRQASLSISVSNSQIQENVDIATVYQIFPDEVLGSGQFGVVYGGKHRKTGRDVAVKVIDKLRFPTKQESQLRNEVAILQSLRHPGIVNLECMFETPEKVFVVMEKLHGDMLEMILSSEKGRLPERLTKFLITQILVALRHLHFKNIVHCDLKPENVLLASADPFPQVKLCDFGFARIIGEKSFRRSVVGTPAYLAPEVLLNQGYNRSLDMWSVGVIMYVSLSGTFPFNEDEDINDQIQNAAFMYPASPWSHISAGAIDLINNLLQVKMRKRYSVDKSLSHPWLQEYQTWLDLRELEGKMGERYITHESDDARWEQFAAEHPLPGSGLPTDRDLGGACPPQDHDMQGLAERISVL
Sequence of RPS6KA5 KD1 (human) (O75582 whole entry, looked up): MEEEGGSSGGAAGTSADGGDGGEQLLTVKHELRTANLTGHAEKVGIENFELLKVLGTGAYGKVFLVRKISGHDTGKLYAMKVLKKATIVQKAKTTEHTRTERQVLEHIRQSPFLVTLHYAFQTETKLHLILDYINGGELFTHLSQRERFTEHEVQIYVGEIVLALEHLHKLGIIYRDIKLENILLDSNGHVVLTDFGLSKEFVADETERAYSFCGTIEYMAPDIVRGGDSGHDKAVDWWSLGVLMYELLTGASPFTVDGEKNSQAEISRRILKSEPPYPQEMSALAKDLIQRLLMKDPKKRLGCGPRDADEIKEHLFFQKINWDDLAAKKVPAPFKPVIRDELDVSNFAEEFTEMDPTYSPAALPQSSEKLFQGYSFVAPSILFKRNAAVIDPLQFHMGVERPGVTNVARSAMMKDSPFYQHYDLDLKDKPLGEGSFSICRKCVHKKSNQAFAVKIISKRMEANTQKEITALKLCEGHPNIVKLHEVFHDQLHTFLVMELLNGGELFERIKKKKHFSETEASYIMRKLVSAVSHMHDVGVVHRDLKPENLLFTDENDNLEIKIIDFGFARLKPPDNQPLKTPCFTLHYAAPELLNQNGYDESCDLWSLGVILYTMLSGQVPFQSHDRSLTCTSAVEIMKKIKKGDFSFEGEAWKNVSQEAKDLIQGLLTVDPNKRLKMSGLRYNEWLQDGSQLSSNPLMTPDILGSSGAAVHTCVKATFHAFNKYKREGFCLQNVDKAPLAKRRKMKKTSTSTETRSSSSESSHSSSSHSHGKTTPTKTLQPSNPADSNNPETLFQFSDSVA
Sequence of PAK6 (human) (Q9NQU5 whole entry, looked up): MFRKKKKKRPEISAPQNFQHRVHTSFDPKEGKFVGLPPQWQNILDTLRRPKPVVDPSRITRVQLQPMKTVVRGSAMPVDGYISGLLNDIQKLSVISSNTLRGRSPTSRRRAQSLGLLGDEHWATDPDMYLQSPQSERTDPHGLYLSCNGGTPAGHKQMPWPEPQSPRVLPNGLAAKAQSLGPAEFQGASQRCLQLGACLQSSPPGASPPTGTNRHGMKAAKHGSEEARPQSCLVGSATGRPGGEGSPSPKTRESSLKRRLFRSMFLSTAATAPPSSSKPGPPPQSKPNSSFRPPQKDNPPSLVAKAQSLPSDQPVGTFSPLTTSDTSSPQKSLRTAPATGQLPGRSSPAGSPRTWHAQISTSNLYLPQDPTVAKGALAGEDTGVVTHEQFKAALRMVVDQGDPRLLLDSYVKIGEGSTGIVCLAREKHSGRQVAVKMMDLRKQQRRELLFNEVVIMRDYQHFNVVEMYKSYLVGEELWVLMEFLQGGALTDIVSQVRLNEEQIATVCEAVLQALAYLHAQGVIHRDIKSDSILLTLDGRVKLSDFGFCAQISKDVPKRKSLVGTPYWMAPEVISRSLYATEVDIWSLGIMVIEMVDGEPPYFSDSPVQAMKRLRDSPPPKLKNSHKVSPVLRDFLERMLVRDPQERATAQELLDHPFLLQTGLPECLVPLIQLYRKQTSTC

SMILES	kinase still bound, per cent of control [1] [%]	kinase still bound, per cent of control [2] [%]	kinase still bound, per cent of control [3] [%]	kinase still bound, per cent of control [4] [%]	kinase still bound, per cent of control [5] [%]	kinase still bound, per cent of control [6] [%]	kinase still bound, per cent of control [7] [%]	kinase still bound, per cent of control [8] [%]	kinase still bound, per cent of control [9] [%]	kinase still bound, per cent of control [10] [%]	kinase still bound, per cent of control [11] [%]	kinase still bound, per cent of control [12] [%]	kinase still bound, per cent of control [13] [%]	kinase still bound, per cent of control [14] [%]	kinase still bound, per cent of control [15] [%]	kinase still bound, per cent of control [16] [%]	kinase still bound, per cent of control [17] [%]	kinase still bound, per cent of control [18] [%]	kinase still bound, per cent of control [19] [%]	kinase still bound, per cent of control [20] [%]	also measured
CC1=C(C(=O)Nc2cc3cn[nH]c3cc2F)C(c2ccc(C(F)(F)F)cc2)CC(=O)N1 (stereo not given)	76	95	95	100	100	92	88	86	100	100	96	100	15	90	90	71	80	24	19	95	kinase still bound, per cent of control [21]: 76%; kinase still bound, per cent of control [22]: 98%; kinase still bound, per cent of control [23]: 86%; kinase still bound, per cent of control [24]: 100%; kinase still bound, per cent of control [25]: 77%; kinase still bound, per cent of control [26]: 100%; kinase still bound, per cent of control [27]: 76%; kinase still bound, per cent of control [28]: 59%; kinase still bound, per cent of control [29]: 86%; kinase still bound, per cent of control [30]: 76%; kinase still bound, per cent of control [31]: 86%; kinase still bound, per cent of control [32]: 67%; kinase still bound, per cent of control [33]: 28%; kinase still bound, per cent of control [34]: 78%; kinase still bound, per cent of control [35]: 77%; kinase still bound, per cent of control [36]: 85%; kinase still bound, per cent of control [37]: 100%; kinase still bound, per cent of control [38]: 23%; kinase still bound, per cent of control [39]: 96%; kinase still bound, per cent of control [40]: 65%
CCN1CCN(Cc2ccc(NC(=O)c3ccc(C)c(/C=C/c4cnc5[nH]ccc5c4OC)c3)cc2C(F)(F)F)CC1	5.2	3.7	79	54	0	15	34	100	7.2	91	79	0.35	100	54	0.1	0.15	4.2	100	0.5	0.2	kinase still bound, per cent of control [21]: 80%; kinase still bound, per cent of control [22]: 13%; kinase still bound, per cent of control [23]: 12%; kinase still bound, per cent of control [24]: 90%; kinase still bound, per cent of control [25]: 2%; kinase still bound, per cent of control [26]: 100%; kinase still bound, per cent of control [27]: 100%; kinase still bound, per cent of control [28]: 41%; kinase still bound, per cent of control [29]: 59%; kinase still bound, per cent of control [30]: 50%; kinase still bound, per cent of control [31]: 19%; kinase still bound, per cent of control [32]: 68%; kinase still bound, per cent of control [33]: 39%; kinase still bound, per cent of control [34]: 4%; kinase still bound, per cent of control [35]: 73%; kinase still bound, per cent of control [36]: 35%; kinase still bound, per cent of control [37]: 38%; kinase still bound, per cent of control [38]: 26%; kinase still bound, per cent of control [39]: 96%; kinase still bound, per cent of control [40]: 93%
